Reference: ChEMBL document CHEMBL4184315, “Discovery of Inhibitor of Wnt Production 2 (IWP-2) and Related Compounds As Selective ATP-Competitive Inhibitors of Casein Kinase 1 (CK1) δ/ε” (J Med Chem, 2018)
Values belong to the compound of their own block, whether it stands above or below them. Active and inactive are the calls of the source. No cut-off for these calls is given here.

Key:
[1] = test system: PANC-1; assay: Antiproliferative activity against human PANC1 cells after 48 hrs by MTT assay; assay type: functional, cell-based; details: PANC-1, 48 h
[2] = biological target: Casein kinase I isoform delta (Rattus norvegicus, UniProt Q06486, M82F); assay: Inhibition of rat GST-tagged CK1delta M82F mutant at 10 uM using alpha-casein as substrate after 30 mins in presence of [gamma-32P]-ATP by Cherenkov counting method
[3] = test system: CAPAN-1; assay: Antiproliferative activity against human Capan1 cells after 48 hrs by MTT assay; assay type: functional, cell-based; details: CAPAN-1, 48 h
[4] = biological target: T1, Casein kinase I isoform delta (Rattus norvegicus, UniProt Q06486); assay: Inhibition of full-length rat GST-tagged CK1delta using alpha-casein as substrate after 30 mins in presence of [gamma-32P]-ATP by Cherenkov counting method
[5] = test system: MIA PaCa-2; assay: Antiproliferative activity against human MIAPaCa2 cells after 48 hrs by MTT assay; assay type: functional, cell-based; details: MIA PaCa-2, 48 h
[6] = biological target: Casein kinase I isoform delta (Rattus norvegicus) (UniProt Q06486); assay: Ratio of IC50 for full-length rat GST-tagged CK1delta to IC50 for rat recombinant CK1delta kinase domain
[7] = Antiproliferative activity against human A818-6 cells after 48 hrs by MTT assay; assay type: functional, cell-based
[8] = biological target: Serine/threonine-protein kinase tousled-like 2 (Homo sapiens) (UniProt Q86UE8); assay: Inhibition of recombinant human TLK2 at 5 nM to 10 uM using alpha-casein as substrate after 30 mins in presence of [gamma-32P]-ATP by Cherenkov counting method
[9] = test system: HEK-293T; assay: Upregulation of renilla luciferase expression in HEK293T cells up to 5 uM after 22 hrs in presence of Wnt3A-conditioned medium by luminescence assay relative to control; assay type: cell-based; details: human
[10] = biological target: Tyrosine-protein kinase ZAP-70 (Homo sapiens) (UniProt P43403); assay: Inhibition of recombinant human full length GST/His-tagged ZAP70 expressed in Sf9 cells assessed as residual activity at 1 uM after 60 mins in presence of [gamma-33P]-ATP by scintillation counting method
[11] = test system: HEK293; assay: Antiproliferative activity against human HEK293 cells after 48 hrs by MTT assay; assay type: functional, cell-based; details: HEK293, 48 h
[12] = biological target: T2, Casein kinase I isoform delta (Homo sapiens, UniProt P48730); assay: Inhibition of CK1delta in human PANC1 cells assessed as residual activity at 2.33 uM using GST-tagged p53 (1 to 64 residues) as substrate after 48 hrs in presence of [gamma-32P]-ATP by Cherenkov counting method; assay type: cell-based
Target sequence in this assay (P48730 whole entry, looked up, the tested form may be a part, canonical isoform): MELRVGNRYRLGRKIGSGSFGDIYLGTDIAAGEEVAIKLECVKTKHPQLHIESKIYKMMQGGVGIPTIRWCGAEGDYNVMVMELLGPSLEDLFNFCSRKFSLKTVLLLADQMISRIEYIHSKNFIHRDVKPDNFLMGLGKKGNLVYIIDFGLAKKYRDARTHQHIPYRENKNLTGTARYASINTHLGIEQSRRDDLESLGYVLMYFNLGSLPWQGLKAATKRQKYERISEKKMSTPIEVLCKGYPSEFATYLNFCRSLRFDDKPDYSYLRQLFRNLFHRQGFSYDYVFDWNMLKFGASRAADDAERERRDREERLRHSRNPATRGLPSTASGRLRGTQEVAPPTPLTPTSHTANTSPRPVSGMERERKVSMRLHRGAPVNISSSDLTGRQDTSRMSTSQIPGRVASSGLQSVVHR

[13] = biological target: T3, Protein-serine O-palmitoleoyltransferase porcupine (Homo sapiens, UniProt Q9H237); assay: Inhibition of porcupine in HEK293T cells transfected with Wnt3A-expressing vector assessed as suppression of Wnt/beta-catenin signaling after 22 hrs by Super-top flash reporter gene assay; assay type: cell-based
T3 sequence (Q9H237 whole entry): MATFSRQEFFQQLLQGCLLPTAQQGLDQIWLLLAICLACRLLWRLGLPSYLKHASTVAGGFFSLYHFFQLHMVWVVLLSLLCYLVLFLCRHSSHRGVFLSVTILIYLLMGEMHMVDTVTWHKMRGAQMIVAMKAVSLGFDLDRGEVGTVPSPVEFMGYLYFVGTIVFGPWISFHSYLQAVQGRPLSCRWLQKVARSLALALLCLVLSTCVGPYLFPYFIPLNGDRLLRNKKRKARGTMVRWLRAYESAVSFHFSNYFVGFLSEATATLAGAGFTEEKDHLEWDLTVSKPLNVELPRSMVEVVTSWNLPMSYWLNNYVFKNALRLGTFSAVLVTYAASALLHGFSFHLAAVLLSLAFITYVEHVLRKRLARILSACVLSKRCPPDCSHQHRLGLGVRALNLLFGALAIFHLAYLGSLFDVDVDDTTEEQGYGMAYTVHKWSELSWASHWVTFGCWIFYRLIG

[14] = Selectivity ratio of IC50 for human CK1epsilon to IC50 for full-length rat GST-tagged CK1delta
[15] = biological target: T1, Casein kinase I isoform delta; assay: Inhibition of rat recombinant CK1delta kinase domain using alpha-casein as substrate after 30 mins in presence of [gamma-32P]-ATP by Cherenkov counting method
[16] = species: Homo sapiens; assay: Inhibition of Wnt/beta-catenin signaling in HEK293T cells after 22 hrs in presence of Wnt3A-conditioned medium by Super-top flash reporter gene assay; assay type: cell-based
[17] = test system: HT-29; assay: Antiproliferative activity against human HT-29 cells after 48 hrs by MTT assay; assay type: functional, cell-based; details: HT-29, 48 h
[18] = biological target: Casein kinase I isoform delta (Rattus norvegicus) (UniProt Q06486); assay: Inhibition of full-length rat GST-tagged CK1delta assessed as residual activity at 10 uM using alpha-casein as substrate after 30 mins in presence of [gamma-32P]-ATP by Cherenkov counting method
[19] = biological target: T2, Casein kinase I isoform delta; assay: Inhibition of human recombinant CK1delta assessed as residual activity at 1 uM after 60 mins in presence of [gamma-33P]-ATP by scintillation counting method
Target sequence in this assay (P48730 whole entry, looked up, the tested form may be a part, canonical isoform): as the sequence (P48730 whole entry, looked up, the tested form may be a part, canonical isoform) above

[20] = Antiproliferative activity against human Panc89 cells after 48 hrs by MTT assay; assay type: functional, cell-based
[21] = biological target: Tyrosine-protein kinase ZAP-70 (Homo sapiens) (UniProt P43403); assay: Inhibition of recombinant human ZAP70 at 5 nM to 10 uM using poly (L-glutamic acid-L-tyrosine) as substrate after 30 mins in presence of [gamma-32P]-ATP by Cherenkov counting method
[22] = biological target: Casein kinase I isoform delta (Rattus norvegicus) (UniProt Q06486); assay: Competitive inhibition of full-length rat GST-tagged CK1delta at IC50 using alpha-casein as substrate after 30 mins in presence of 10 to 500 uM ATP and [gamma-32P]-ATP by Cherenkov counting method
[23] = Selectivity ratio of IC50 for human CK1epsilon to IC50 for rat recombinant CK1delta kinase domain
[24] = biological target: Serine/threonine-protein kinase tousled-like 2 (Homo sapiens) (UniProt Q86UE8); assay: Inhibition of recombinant human N-terminal FLAG/C-terminal HIS8-tagged TLK2 assessed as residual activity at 1 uM after 60 mins in presence of [gamma-33P]-ATP by scintillation counting method
[25] = biological target: Casein kinase I isoform delta (Rattus norvegicus) (UniProt Q06486); assay: Inhibition of rat recombinant CK1delta kinase domain assessed as residual activity at 10 uM using alpha-casein as substrate after 30 mins in presence of [gamma-32P]-ATP by Cherenkov counting method
[26] = test system: SW-620; assay: Antiproliferative activity against human SW620 cells after 48 hrs by MTT assay; assay type: functional, cell-based; details: SW-620, 48 h
[27] = test system: HEK-293T; assay: Upregulation of renilla luciferase expression in HEK293T cells transfected with Wnt3A-expressing vector up to 5 uM after 22 hrs by luminescence assay relative to control; assay type: cell-based; details: human
[28] = biological target: T4, Protein-serine O-palmitoleoyltransferase porcupine (Homo sapiens) (UniProt Q9H237); assay: Inhibition of porcupine in HEK293T cells transfected with Wnt3A-expressing vector assessed as suppression of Wnt/beta-catenin signaling at 5 uM after 22 hrs by Super-top flash reporter gene assay relative to control; assay type: cell-based
T4 sequence (whole entry): T3 sequence (Q9H237 whole entry)

[29] = biological target: Casein kinase I isoform epsilon (Homo sapiens, UniProt P49674); assay: Inhibition of human recombinant CK1epsilon using alpha-casein as substrate after 30 mins in presence of [gamma-32P]-ATP by Cherenkov counting method
[30] = biological target: Casein kinase I isoform gamma-3 (Homo sapiens) (UniProt Q9Y6M4); assay: Inhibition of human GST-tagged CK1gamma3 at 1 uM using alpha-casein as substrate after 30 mins in presence of [gamma-32P]-ATP by Cherenkov counting method
[31] = biological target: T2, Casein kinase I isoform delta; assay: Inhibition of human recombinant CK1delta at 1 uM after 60 mins in presence of [gamma-33P]-ATP by scintillation counting method
Target sequence in this assay (P48730 whole entry, looked up, the tested form may be a part, canonical isoform): as the sequence (P48730 whole entry, looked up, the tested form may be a part, canonical isoform) above

[32] = biological target: T5, Casein kinase I isoform alpha (Bos taurus) (UniProt P67827); assay: Inhibition of bovine GST-tagged CK1alpha at 1 uM using alpha-casein as substrate after 30 mins in presence of [gamma-32P]-ATP by Cherenkov counting method
T5 sequence (whole entry): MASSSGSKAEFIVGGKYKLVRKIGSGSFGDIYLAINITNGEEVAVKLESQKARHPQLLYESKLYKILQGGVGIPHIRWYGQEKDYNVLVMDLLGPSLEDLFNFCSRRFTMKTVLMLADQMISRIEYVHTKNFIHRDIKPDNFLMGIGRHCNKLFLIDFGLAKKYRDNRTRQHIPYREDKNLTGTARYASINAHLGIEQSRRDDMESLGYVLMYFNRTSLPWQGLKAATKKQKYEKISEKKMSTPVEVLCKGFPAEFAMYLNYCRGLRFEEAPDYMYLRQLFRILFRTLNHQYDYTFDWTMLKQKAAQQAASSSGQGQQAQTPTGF

[33] = biological target: T2, Casein kinase I isoform delta; assay: Inhibition of CK1delta in HEK293T cells assessed as stimulation of Wnt/beta-catenin signaling after 22 hrs in presence of Wnt3A-conditioned medium by Super-top flash reporter gene assay; assay type: cell-based
Target sequence in this assay (P48730 whole entry, the tested form may be a part, canonical isoform): as the sequence (P48730 whole entry, looked up, the tested form may be a part, canonical isoform) above

[34] = biological target: T2, Casein kinase I isoform delta; assay: Inhibition of CK1delta in HEK293T cells assessed as stimulation of Wnt/beta-catenin signaling at 5 uM after 22 hrs in presence of Wnt3A-conditioned medium by Super-top flash reporter gene assay relative to control; assay type: cell-based
Target sequence in this assay (P48730 whole entry, looked up, the tested form may be a part, canonical isoform): as the sequence (P48730 whole entry, looked up, the tested form may be a part, canonical isoform) above

[35] = test system: HEK-293T; assay: Toxicity in HEK293T cells at 0.5 to 5 uM after 6 to 22 hrs by CellTiter-Glo assay; assay type: cell-based; details: human

Sequence of Casein kinase I isoform delta (Rattus norvegicus) (Q06486 whole entry, looked up, the tested form may be a part, canonical isoform): as the sequence (P48730 whole entry, looked up, the tested form may be a part, canonical isoform) above, with I381V counted along it
T1 sequence (Q06486 whole entry, canonical isoform): as the sequence (P48730 whole entry, looked up, the tested form may be a part, canonical isoform) above, with I381V counted along it
Sequence of Tyrosine-protein kinase ZAP-70 (Homo sapiens) (P43403 whole entry, canonical isoform): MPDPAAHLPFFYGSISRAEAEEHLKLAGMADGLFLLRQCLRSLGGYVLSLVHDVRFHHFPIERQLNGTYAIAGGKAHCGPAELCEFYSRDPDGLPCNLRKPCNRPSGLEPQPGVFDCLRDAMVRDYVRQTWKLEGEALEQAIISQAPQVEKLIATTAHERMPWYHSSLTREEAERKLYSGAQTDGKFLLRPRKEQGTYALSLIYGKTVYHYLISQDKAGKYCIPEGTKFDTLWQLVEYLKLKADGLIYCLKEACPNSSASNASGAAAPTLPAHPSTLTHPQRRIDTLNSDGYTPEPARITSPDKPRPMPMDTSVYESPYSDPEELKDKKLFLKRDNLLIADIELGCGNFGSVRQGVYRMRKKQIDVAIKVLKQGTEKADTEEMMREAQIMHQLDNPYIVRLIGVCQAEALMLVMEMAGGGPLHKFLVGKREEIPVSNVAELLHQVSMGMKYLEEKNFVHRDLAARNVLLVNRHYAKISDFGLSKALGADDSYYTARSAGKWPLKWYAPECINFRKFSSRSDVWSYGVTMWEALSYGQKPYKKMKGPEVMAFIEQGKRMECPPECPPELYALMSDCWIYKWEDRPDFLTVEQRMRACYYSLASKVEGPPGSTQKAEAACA
Sequence of Casein kinase I isoform epsilon (P49674 whole entry, canonical isoform): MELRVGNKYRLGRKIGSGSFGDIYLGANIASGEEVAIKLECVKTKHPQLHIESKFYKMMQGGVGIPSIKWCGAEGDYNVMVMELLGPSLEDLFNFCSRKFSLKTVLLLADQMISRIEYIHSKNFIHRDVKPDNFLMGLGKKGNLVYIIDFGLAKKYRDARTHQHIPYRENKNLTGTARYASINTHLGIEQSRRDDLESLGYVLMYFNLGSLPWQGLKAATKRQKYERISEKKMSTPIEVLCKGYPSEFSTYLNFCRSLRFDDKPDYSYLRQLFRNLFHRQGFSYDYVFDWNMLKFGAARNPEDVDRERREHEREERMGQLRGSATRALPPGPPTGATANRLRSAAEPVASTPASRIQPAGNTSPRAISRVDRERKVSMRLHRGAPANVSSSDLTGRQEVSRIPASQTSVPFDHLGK
Sequence of Serine/threonine-protein kinase tousled-like 2 (Homo sapiens) (Q86UE8 whole entry, looked up, the tested form may be a part, canonical isoform): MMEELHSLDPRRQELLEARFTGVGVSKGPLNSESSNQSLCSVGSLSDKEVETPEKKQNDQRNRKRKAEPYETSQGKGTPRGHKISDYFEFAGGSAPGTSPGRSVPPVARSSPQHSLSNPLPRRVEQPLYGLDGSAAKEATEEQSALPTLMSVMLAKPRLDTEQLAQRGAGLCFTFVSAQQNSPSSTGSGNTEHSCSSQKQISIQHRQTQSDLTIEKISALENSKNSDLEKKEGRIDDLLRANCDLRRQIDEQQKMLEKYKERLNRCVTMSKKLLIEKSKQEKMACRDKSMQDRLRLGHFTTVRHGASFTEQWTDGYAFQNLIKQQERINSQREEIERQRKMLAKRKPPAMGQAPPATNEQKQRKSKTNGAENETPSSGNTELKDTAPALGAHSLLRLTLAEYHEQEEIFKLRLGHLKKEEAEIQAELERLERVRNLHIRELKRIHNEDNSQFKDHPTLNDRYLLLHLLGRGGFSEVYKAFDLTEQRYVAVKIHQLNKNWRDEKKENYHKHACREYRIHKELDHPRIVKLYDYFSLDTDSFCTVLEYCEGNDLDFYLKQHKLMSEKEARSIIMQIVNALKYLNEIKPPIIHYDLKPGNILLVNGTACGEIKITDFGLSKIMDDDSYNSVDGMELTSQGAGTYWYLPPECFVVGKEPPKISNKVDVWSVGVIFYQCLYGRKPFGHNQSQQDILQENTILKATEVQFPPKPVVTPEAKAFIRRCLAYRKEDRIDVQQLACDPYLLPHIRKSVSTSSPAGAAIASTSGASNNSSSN
Sequence of Casein kinase I isoform delta (Rattus norvegicus, UniProt Q06486, M82F) (Q06486 whole entry M82F, canonical isoform): as the sequence (P48730 whole entry, looked up, the tested form may be a part, canonical isoform) above, with M82F, I381V counted along it
Sequence of Casein kinase I isoform gamma-3 (Homo sapiens) (Q9Y6M4 whole entry, looked up, canonical isoform): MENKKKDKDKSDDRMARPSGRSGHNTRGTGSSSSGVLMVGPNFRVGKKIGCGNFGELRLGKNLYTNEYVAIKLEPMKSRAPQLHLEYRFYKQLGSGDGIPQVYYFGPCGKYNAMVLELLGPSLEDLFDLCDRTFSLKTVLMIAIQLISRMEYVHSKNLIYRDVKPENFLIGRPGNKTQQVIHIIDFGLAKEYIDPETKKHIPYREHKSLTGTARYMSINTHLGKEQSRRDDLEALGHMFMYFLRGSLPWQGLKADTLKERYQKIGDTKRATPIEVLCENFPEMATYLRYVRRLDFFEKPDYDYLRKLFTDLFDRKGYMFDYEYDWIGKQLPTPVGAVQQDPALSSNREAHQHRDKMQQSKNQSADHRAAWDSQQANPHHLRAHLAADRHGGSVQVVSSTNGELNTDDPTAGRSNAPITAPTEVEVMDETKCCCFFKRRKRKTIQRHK

- EC50 [1]: 2330 nM
- IC50 [2]: 40 nM
- IC50 [4]: 930 nM
- EC50 [5]: 1900 nM
- Ratio IC50 [6]: 4
- inhibition [8]: inactive
- fold change (FC) [9]: <= 1.5
- Activity [10]: 54%
- Activity [12]: 66%
- IC50 [13]: 157 nM
- Ratio IC50 [14]: 4 to 7
- IC50 [15]: 320 nM
- EC50 [17]: 4670 nM
- Activity [18]: 23%
- Activity [19]: 55%
- inhibition [21]: inactive
- inhibition [22]: Active
- Ratio IC50 [23]: < 17
- Activity [24]: 59%
- Activity [25]: 19%
- EC50 [26]: 1900 nM
- fold change (FC) [27]: <= 1.3
- Imax [28]: 5.5%
- IC50 [29]: 4030 nM
Compound: Cc1ccc2nc(NC(=O)CSc3nc4c(c(=O)n3-c3ccccc3)SCC4)sc2c1
- EC50 [3]: 2050 nM
- EC50 [7]: 8960 nM
- EC50 [11]: 2760 nM
- inhibition [16]: inactive
- EC50 [20]: 3860 nM

- IC50 [2]: 90 nM
- inhibition [30]: Active
- IC50 [4]: 410 nM
- fold change (FC) [9]: <= 1.5
- IC50 [13]: 710 nM
- IC50 [15]: 90 nM
- inhibition [31]: Active
- inhibition [32]: Active
- EC50 [33]: 1470 nM
- Emax [34]: 225%
- fold change (FC) [27]: <= 1.3
- Imax [28]: 38.8%
- IC50 [29]: 560 nM
Compound: COc1ccc(Cn2c(SCC(=O)Nc3nc4ccc(C(F)(F)F)cc4s3)nc3c(c2=O)SCC3)cc1

Compound: Fc1cccc(-n2cnc3c(NCc4nc5ccc(F)c(F)c5[nH]4)nc(N4CCOCC4)nc32)c1
- Activity [35]: Toxic
